From patent US6875761B2 (Eisai Co., Ltd., priority 1997, dated 2005) come the findings set out here.

Structures can show the parent of a compound that is named as a salt.

The term melting point denotes the temperature of the solid-liquid transition. On to `CCCS(=O)(=O)Nc1ccc(-c2cc3ccccc3c(N3CCN(CC)CC3)n2)cc1` (as salt: hydrochloride) [Example 72, 3-(4-Propylsulfonylaminophenyl)-1-(4-Ethylpiperazin-1-Yl)Isoquinoline Hydrochloride], for which the melting point lay in the range of 163 to 165 °C.
As for `CCCCS(=O)(=O)Nc1ccc(-c2cc3ccccc3c(N3CCN(CC)CC3)n2)cc1` (as salt: hydrochloride) [Example 73, 3-(4-Butylsulfonylaminophenyl)-1-(4-Ethylpiperazin-1-Yl)Isoquinoline Hydrochloride], the figure is 160 to 163 °C.
With `CCN1CCN(c2nc(-c3ccc(S(=O)(=O)N4CCSCC4)cc3)cc3ccccc23)CC1` (as salt: hydrochloride) [Example 76, 3-[(4-Thiomorpholinyl)Sulfonylphenyl]-1-(4-Ethylpiperazin-1-Yl)Isoquinoline Hydrochloride], the melting point is 268 to 270 °C (dec.).
As for `CCN1CCN(c2nc(-c3ccc(S(=O)(=O)N4CCS(=O)(=O)CC4)cc3)cc3ccccc23)CC1` (as salt: hydrochloride) [Example 77, 3-[(1,1-Dioxythiomorpholinyl)Sulfonylphenyl]-1-(4-Ethylpiperazin-1-Yl)Isoquinoline Hydrochloride], the figure is 198 to 200 °C; as for `CCN1CCN(c2nc(-c3ccc(CCNS(=O)(=O)CC)cc3)cc3ccccc23)CC1` (as salt: hydrochloride) [Example 79, 3-(4-Ethylsulfonylaminoethylphenyl)-1-(4-Ethylpiperazin-1-Yl)Isoquinoline Hydrochloride], 194 to 197 °C; as for `CCNS(=O)(=O)Cc1ccc(-c2cc3ccccc3c(N3CCN(CC)CC3)n2)cc1` (as salt: hydrochloride) [Example 80, 3-(4-Ethylaminosulfonylmethylphenyl)-1-(4-Ethylpiperazin-1-Yl)Isoquinoline Hydrochloride], 154 to 156 °C.
Compound `CCCNS(=O)(=O)Cc1ccc(-c2cc3ccccc3c(N3CCN(CC)CC3)n2)cc1` (as salt: hydrochloride) [Example 81, 3-(4-Propylaminosulfonylmethylphenyl)-1-(4-Ethylpiperazin-1-Yl)Isoquinoline Hydrochloride] registered a melting point of 194 to 197 °C.
In turn, `CCN1CCN(c2nc(-c3ccc(C4CCOCC4)cc3)cc3ccccc23)CC1` (as salt: hydrochloride) [Example 83, 3-[4-(Tetrahydropyran-4-yl)phenyl]-1-(4-ethylpiperazin-1-yl)isoquinoline Hydrochloride] displayed a melting point of 148 to 150 °C.
`CCN1CCN(c2nc(-c3ccc(C4=CCOCC4)cc3)cc3ccccc23)CC1` (as salt: hydrochloride) [Example 84, 3-[4-(5,6-Dihydro-2H-pyran-4-yl)phenyl]-1-(4-ethylpiperazin-1-yl)isoquinoline Hydrochloride] gave a melting point of 170 to 172 °C.
The figure for `CCC(=O)NCc1ccc(-c2cc3ccccc3c(N3CCN(CC)CC3)n2)cc1` (as salt: hydrochloride) [Example 85, 3-(4-Ethylcarbonylaminomethylphenyl)-1-(4-ethylpiperazin-1-yl)isoquinoline Hydrochloride] is 171 to 174 °C; for `CCCC(=O)NCc1ccc(-c2cc3ccccc3c(N3CCN(CC)CC3)n2)cc1` (as salt: hydrochloride) [Example 86, 3-(4-Propylcarbonylaminomethylphenyl)-1-(4-ethylpiperazin-1-yl)isoquinoline Hydrochloride] it is 126 to 128 °C.
For `CCNC(=O)Cc1ccc(-c2cc3ccccc3c(N3CCN(CC)CC3)n2)cc1` (as salt: hydrochloride) [Example 87, 3-(4-Ethylaminocarbonylmethylphenyl)-1-(4-ethylpiperazin-1-yl)isoquinoline Hydrochloride], the melting point was 143 to 145 °C.
The figure for `CCCNC(=O)Cc1ccc(-c2cc3ccccc3c(N3CCN(CC)CC3)n2)cc1` (as salt: hydrochloride) [Example 88, 3-(4-Propylaminocarbonylmethylphenyl)-1-(4-ethylpiperazin-1-yl)isoquinoline Hydrochloride] is 138 to 141 °C; for `CCCCNC(=O)Cc1ccc(-c2cc3ccccc3c(N3CCN(CC)CC3)n2)cc1` (as salt: hydrochloride) [Example 89, 3-(4-Butylaminocarbonylmethylphenyl)-1-(4-ethylpiperazin-1-yl)isoquinoline Hydrochloride] it is 133 to 136 °C; for `CCN1CCN(c2nc(-c3ccc(CS(C)(=O)=O)cc3)cc3ccccc23)CC1` (as salt: hydrochloride) [Example 90, 3-(4-Methylsulfonylmethylphenyl)-1-(4-ethylpiperazin-1-yl)isoquinoline Hydrochloride] it is 260 to 262 °C.
As for `CCN1CCN(c2nc(-c3ccc(CNS(=O)(=O)CC)c(Cl)c3)cc3ccccc23)CC1` (as salt: hydrochloride) [Example 91, 3-(3-Chloro-4-ethylsulfonylaminomethylphenyl)-1-(4-ethylpiperazin-1-yl)isoquinoline Hydrochloride], the figure is 278 to 280 °C (dec.); as for `CCCS(=O)(=O)NCc1ccc(-c2cc3ccccc3c(N3CCN(CC)CC3)n2)cc1Cl` (as salt: hydrochloride) [Example 92, 3-(3-Chloro-4-propylsulfonylaminomethylphenyl)-1-(4-ethylpiperazin-1-yl)isoquinoline Hydrochloride], 253 to 255 °C (dec.); as for `CCN1CCN(c2nc(-c3ccc(CN4CCSCC4)cc3)cc3ccccc23)CC1` (as salt: hydrochloride) [Example 94, 3-(4-Thiomorpholinylmethylphenyl)-1-(4-ethylpiperazin-1-yl)isoquinoline Hydrochloride], 193 to 197 °C.
The figure for `CCN1CCN(c2nc(-c3ccc(N4CCOC4=O)cc3)cc3ccccc23)CC1` (as salt: hydrochloride) [Example 95, 3-[4-(3-Oxazolidinone)phenyl]-1-(4-ethylpiperazin-1-yl)isoquinoline Hydrochloride] is 171 to 174 °C.
The compound `CCN1CCN(c2nc(-c3ccc(N4CCC(O)CC4)cc3)cc3ccccc23)CC1` (as salt: hydrochloride) [Example 97, 1-(4-Ethylpiperazin-1-yl)-3-[4-(4-hydroxypiperidin-1-yl)phenyl]isoquinoline Trihydrochloride] registered a melting point of 178 °C.
As for `CCN1CCN(c2nc(-c3ccc(N4CCC(OC)CC4)cc3)cc3ccccc23)CC1` (as salt: hydrochloride) [Example 98, 1-(4-Ethylpiperazin-1-yl)-3-[4-(4-methoxypiperidin-1-yl)phenyl]isoquinoline Trihydrochloride], the figure is 165 °C.
The figure for `CCN1CCN(c2nc(CCc3ccc(OC)cc3)cc3ccccc23)CC1` (as salt: hydrochloride) [Example 106, 1-(1-Ethylpiperazin-4-yl)-3-(4-methoxyphenethyl)isoquinoline] is 224 to 227 °C; for `CCN1CCN(c2nc(C3CCc4c(OC)cccc43)cc3ccccc23)CC1` (stereo not drawn) (as salt: hydrochloride) [Example 113, 3-(4-Methoxyindan-1-yl)-1-(4-ethylpiperazin-1-yl)isoquinoline Hydrochloride] it is 108 to 110 °C; for `CCN1CCN(c2nc(-c3ccc4c(c3)CC(CO)CO4)cc3ccccc23)CC1` (stereo not drawn) (as salt: hydrochloride) [Example 122, 3-(3-Hydroxymethylchroman-6-yl)-1-(4-Ethylpiperazin-1-yl)Isoquinoline Hydrochloride] it is 168 to 172 °C.
For `CCN1CCN(c2nc(-c3ccccn3)cc3ccccc23)CC1` (as salt: hydrochloride) [Example 123, 1-(4-Ethylpiperazin-1-yl)-3-(2-Pyridyl)Isoquinoline Dihydrochloride], the melting point is 160 to 162 °C.
Consider `CCN1CCN(c2nc(-c3ccc(OCCO)cn3)cc3ccccc23)CC1` (as salt: hydrochloride) [Example 124, 1-(1-Ethylpiperazin-4-yl)-3-[5-(2-Hydroxyethoxy)Pyridin-2-yl]Isoquinoline], for which the melting point was 110 to 115 °C.
The figure for `CCN1CCN(c2nc(-c3ccc(OCCO)nc3)cc3ccccc23)CC1` (as salt: hydrochloride) [Example 125, 1-(1-Ethylpiperazin-4-yl)-3-[2-(2-Hydroxyethoxy)Pyridin-5-yl]Isoquinoline] is 137 to 142 °C; for `CCN1CCN(c2nc(-c3ccc(OCCOC)nc3)cc3ccccc23)CC1` (as salt: hydrochloride) [Example 126, 1-(1-Ethylpiperazin-4-yl)-3-[2-(2-Methoxyethoxy)Pyridin-5-yl]Isoquinoline] it is 115 to 120 °C; for `CCN1CCN(c2nc(-c3ccc(OCCOC)cn3)cc3ccccc23)CC1` (as salt: hydrochloride) [Example 127, 1-(1-Ethylpiperazin-4-yl)-3-[5-(2-Methoxyethoxy)Pyridin-2-yl]Isoquinoline] it is 116 to 119 °C.
The figure for `CCCC(=O)Nc1ccc(-c2cc3ccccc3c(N3CCN(CC)CC3)n2)cn1` (as salt: hydrochloride) [Example 128, 3-(2-propylcarbonylaminopyridin-5-yl)-1-(4-ethylpiperazin-1-yl)isoquinoline hydrochloride] is 168 to 171 °C; for `CCN1CCN(c2nc(-c3ccc(S(C)(=O)=O)nc3)cc3ccccc23)CC1` (as salt: hydrochloride) [Example 129, 3-[(2-Methylsulfonylpyridin)-5-yl]-1-(4-Ethylpiperazin-1-yl)Isoquinoline Hydrochloride] it is 248 to 250 °C.
As for `CCN1CCN(c2nc(-c3ccc(S(=O)(=O)CC)nc3)cc3ccccc23)CC1` (as salt: hydrochloride) [Example 130, 3-[(2-Ethylsulfonylpyridin)-5-yl]-1-(4-Ethylpiperazin-1-yl)Isoquinoline Hydrochloride], the figure is 155 to 159 °C; as for `CCN1CCN(c2nc(-c3ccc(N4CCOCC4)nc3)cc3ccccc23)CC1` (as salt: hydrochloride) [Example 147, 1-(4-ethylpiperazin-1-yl)-3-[2-(morpholin-4-yl)pyridin-5-yl]isoquinoline trihydrochloride], 186 °C.
